From patent US11642333B2, “Inhalable formulation of a solution containing vilanterol trifenatate and umeclidinium bromide” (ANOVENT PHARMACEUTICAL (U.S.), LLC, priority 2019, dated 2023)

Assays:
[1] = Content of umeclidinium bromide and vilanterol trifenatate in the inhalation solutions (tested results); format: physicochemical
Procedure: 50% benzalkonium chloride and tween-80 according to table 1, were dissolved in 16 g of 95% ethanol for three times, and then transferred into 100 ml volumetric flask. […] Finally, the flask was made to volume with purified water.
50% benzalkonium chloride and tween-80 according to table 3, were dissolved in 95% ethanol according to table 3 for three times, and then transferred into 100 ml volumetric flask. […] Finally, the flask was made to volume with purified water.
50% benzalkonium chloride and tween-80 according to table 5, were dissolved in 95% ethanol according to table 5 for three times, and then transferred into 100 ml volumetric flask. […] Finally, the flask was made to volume with purified water.

[2] = in vivo; cited from earlier work

SMILES: OC(c1ccccc1)(c1ccccc1)C12CC[N+](CCOCc3ccccc3)(CC1)CC2.[Br-] [Umeclidinium bromide, 1-[2-(Benzyloxy)ethyl]-4-(hydroxydiphenylmethyl)-1-azoniabicyclo [2.2.2] octane bromide]
- Dissolution in the solution containing ethanol and tween-80 ([1]; sample I and sample II (table 2)): completely dissolved
- Dissolution in the solution containing ethanol and tween-80 ([1]; sample III, sample IV and sample V (table 4)): completely dissolved
- Dissolution in the solution containing ethanol and tween-80 ([1]; sample VI, sample VII and sample VIII (table 6)): completely dissolved
- oral bioavailability [2]: poor
